Values joined by “and” are separate entries in the source; they are usually repeats but may differ in a detail not shown here. Identical values can stand only once. Like-named read-outs stand apart in the source and are kept apart here.

Series [1] can be described thus: Animal experiment, first pig: systemic paclitaxel, plasma and lung tissue concentration.
Protocol: (§2) A first pig was given 4.28 mg/kg/hr of paclitaxel systemically, i.e., intravenously over three hours. […] Next, the lung tissue in a second pig was saturated with paclitaxel via the airways by an endoluminal approach. […] The drug solution dwelled in the airways of the second animal for approximately 20 minutes to ensure saturation of the lung tissue before being evacuated from the airways.
A short description of series [2]: GMX001 colon tissue PTX concentration after systemic infusion. It counts as in vivo, porcine. The conditions noted are these: 3 hour animal 19P0837; for concentration at 3 h: pig, intravenous, 4.28 mg/kg/hr, Colon PTX concentration. The text has this: Three samples each were taken from the rectum, transverse (tran) colon, ascending (asc) colon, descending (desc) colon and colon lymph nodes (LN).

Series [3] is described as follows: GMX002 plasma PTX concentration after local lung lavage. It counts as in vivo, porcine. As to the method: For GMX002 (local), anatomy permitting, 2 animals were divided into a 20 minute animal and a 72 hour animal.
The necropsy for tissue collection was completed to obtain information on the drug concentration within the lung and lung lymph nodes.
The chronic (72 hour) animal in the study was recovered with blood plasma samples collected immediately after infusion, followed by additional blood plasma collection occurring at 5, 15, and 30 minutes following infusion. More blood plasma was collected after 1, 3, 5, 9, 24, and 72 hours. The necropsy for tissue collection took place 72 hours after infusion with drug concentration measurements in the lung and lung lymph nodes. Histopathology was done on the lung.
Animal 19P0844 was infused with 700 mL. Animal 19P1241 was infused with approximately 900 mL.
Animal 19P1241 had 2 mL of blood collected at baseline and at 5, 10, 15 and 20 minutes of infusion. Plasma was collected for processing. Animal 19P0884 had 2 mL of blood collected at baseline, 5, 10, 15 and 20 minutes of infusion. Following infusion, blood was collected at 5, 15, 30 minutes with more blood being collected after 1, 3, 5, 9, 24, and 72 hours.

Series [4] in a line: GMX001 lung and lung lymph node PTX concentration after systemic infusion.
Description: (§3) The necropsy for tissue collection after the last plasma sample focused on drug concentration and included: lung, lung lymph nodes, colon, and the colon lymph nodes.
(§4) Spectra were compared to the validated protocol and standard curve generated for the study.
(§5) The acute animal (19P0837) and the chronic animal (19P0997) were sent to necropsy for gross pathology and tissue harvesting. Three full thickness lung tissue samples from each of the cranial (cran) caudal (caud) and middle (mid) lobes were frozen and sent for analytical analysis.
Series [5] is described as follows: GMX002 lung tissue PTX concentration after local lung lavage. The following applies: for concentration at 20 min: pig. The format is in vivo, porcine.
Protocol: A blood sample was also collected at 0, 5, 10, 15, and 20 minutes.
as §4
The acute animal (19P1241) and the chronic animal (19P0884) were sent to necropsy for gross pathology and tissue harvesting. Three full thickness lung tissue sample from each of the cranial (cran) caudal (caud) and middle (mid) lobes of the untreated left lung and three lung tissue samples from each of the cranial (cran) caudal (caud) and middle (mid) lobes of the treated right lung were taken from the 20 minute animal, frozen and sent for analytical analysis.
The nature of series [6]: in vivo. The conditions noted are these: pig, intravenous.
Description: as §3, §4, §5
A short description of series [7]: Animal experiment, second pig: endoluminal airway paclitaxel, lung tissue concentration. The conditions noted are these: soaking solution 75.8 μM in airways, approximately 20 minutes dwell.
Protocol: as §2
Series [8] is described as follows: GMX001 plasma PTX concentration after systemic infusion (LC/MS). It counts as in vivo, porcine. The following applies: pig; for concentration at 3 h: systemic infusion 175 mg/m^2 over 3 hours; for Cmax: iv, 175 mg/m2, systemic. As to the method: The systemic studies were denoted GMX001 and local administration studies GMX002.
For GMX001 (systemic), anatomy permitting, 2 animals were used and divided into a 3 hour animal and a 72 hour animal.
(§1) For GMX001, both animals underwent surgery to place two (2) CVL catheters, 1 for infusion and 1 for plasma collection. The animals were allowed to recover and stabilize.

Series [9] is classed as in vivo, porcine. As to the method:
as §1
Animal 19P0837 had 2 mL of blood collected at baseline and after the 3 hours infusion. […] Blood was processed and sent to Analytical for processing. […] The animal survived to the scheduled term with signs of discomfort as per technician's observations. The animal had blisters on the chest at day 3, prior to term.
Gross examination of the lungs, colon, jejunum, regional lymph nodes, and collateral structures was conducted. […] Lungs were also slightly heavy. […] Small intestine appeared bloated diffusely. The lumen of darkened jejunum section appeared mottled dark purple to black. There were no other abnormal findings noted at necropsy.

The conditions of series [10]: humans, cited from earlier work.
Series [11] can be described thus: Porcine local levofloxacin: pathology and side effects. It counts as in vivo.
Protocol: (§6) Porcine studies were performed similarly to as described in Example A but using levofloxacin as the drug agent. Only local administration to the lung was performed.
The conditions of series [12]: pig, in vivo.
Protocol: as §6
The conditions of series [13]: humans; systemic administration; cited from earlier work.
The nature of series [14]: in vivo. The conditions noted are these: pig.
Protocol: as §6
Setting [15] is: systemic, 3 hour animal 19P0837.
The mark [16] stands for this setting: systemic, 72 hour animal 19P0997.
[17] abbreviates: local lavage of right lung, 20 min, animal 19P1241.
Where [18] appears, read: lung tissue (RT mid lung), 175 mg/m^2.

As for `CC(=O)O[C@H]1C(=O)[C@@]2(C)[C@H]([C@H](OC(=O)c3ccccc3)[C@]3(O)C[C@H](OC(=O)[C@H](O)[C@@H](NC(=O)c4ccccc4)c4ccccc4)C(C)=C1C3(C)C)[C@]1(OC(C)=O)CO[C@@H]1C[C@@H]2O` [PTX, 5β,20-Epoxy-1,2α,4,7β,10β,13α-hexahydroxytax-11-en-9-one 4,10-diacetate 2-benzoate 13-ester with (2R,3S)-N-benzoyl-3-phenylisoserine], the “maximum plasma concentration MPC” value in series [1] (4.28 mg/kg/hr intravenously over three hours) amounted to 78.58 µM. Besides, the “average lung tissue concentration TC” value in series [1] (samples immediately after systemic delivery) is 37.9 µM; in series [7], 40.4 µM. Besides, the “Colon PTX concentration, asc colon” value in series [2] is 16900 ng/g and 13200 ng/g. Further, the “Colon PTX concentration, colon LN” value in [2] is 12700 ng/g and 17700 ng/g. In addition, the “Colon PTX concentration, desc colon” value in series [2] was 12700 ng/g and 12800 ng/g. The “Colon PTX concentration, rectum” value in series [2] was 14100 ng/g and 16000 ng/g. Also, the “Colon PTX concentration, tran colon” value in [2] was 14600 ng/g and 13200 ng/g. Moreover, the concentration at 3 h stood at 10800 ng/g in series [2] (ascending colon, asc colon); 19600 ng/g in series [2] (colon lymph nodes, colon LN); 12500 ng/g in series [2] (descending colon, desc colon); 14400 ng/g in series [2] (rectum); 13500 ng/g in series [2] (transverse colon, tran colon); 42900 ng/g in the series “in vivo [6]” (lung tissue (RT caud lung), 175 mg/m^2). The concentration at 3 h stood at 32200 ng/g in the series “in vivo [6]” (lung tissue (RT cran lung), 175 mg/m^2); 32000 ng/g in the series “in vivo [6]” (setting [18]); 57 µg/mL in [8] (intravenous, 175 mg/m^2, Blood PTX concentration, animal 19P0837, 3 hr); 67.1 µg/mL in series [8] (intravenous, 175 mg/m^2, Blood PTX concentration, animal 19P0997, 3 hr). Moreover, the “plasma Cmax local / systemic” value in series [3] ([…]57000 ng/mL) is given as 0.048%; in [3] ([…]67100 ng/mL), 0.041%. In addition, in series [3] (local vs systemic), the “plasma Cmax for local administration as % of plasma Cmax with systemic administration” value was “less than 0.05%”. For the same molecule, the “plasma Cmax lower with local than with systemic administration” value in series [3] (local vs systemic) is on record as “more than 2000 fold”. Also, in [3] (local, 32,000 ng/mL, after the lung was cleared of the drug), the “time of peak plasma concentration after end of lung infusion” value is 5 min. Also, in series [3] (local, 72 hour animal 19P0844), the “time of peak concentration of PTX in plasma after infusion initiation” value is 25. In addition, the Cmax came to 27.6 ng/mL in series [3] (pig, plasma, other: local lung lavage (right lung, via catheter), 32000 ng/mL (lavage solution), local, 5 minutes post local infusion, read-out: maximum concentration in plasma (Cmax)); 57 µg/mL in series [8] (3 hour animal); 67.1 µg/mL in series [8] (72 hour animal). Besides, the “decrease of lung PTX concentration 72 hours following systemic administration” value in [4] (3 hour animal 19P0837 vs 72 hour animal 19P0997) is “approximately 3.5 fold”. The “PTX in lung tissue achieved” value in series [4] (systemic administration (GMX001)) is “greater than 30000 ng/g”. Besides, the “lung tissue concentration range” value in series [4] (systemic drug delivery at 3 hours) is on record as 12,500-41,200 ng/g. Besides, the “Lung PTX concentration, RT caud lung” value was 28800 ng/g and 31600 ng/g in [4] (setting [15]); 2070 ng/g in [4] (setting [16]); 35300 ng/g tissue and 29800 ng/g tissue in [5] (setting [17]). In addition, the “Lung PTX concentration, RT cran lung” value was 27000 ng/g and 27300 ng/g in series [4] (setting [15]); 2660 ng/g in [4] (setting [16]); 32100 ng/g tissue and 38400 ng/g tissue in series [5] (setting [17]). Moreover, the “Lung PTX concentration, RT mid lung” value in series [4] (setting [15]) was 41200 ng/g and 28300 ng/g; in [4] (setting [16]), 2590 ng/g. The “Lung PTX concentration, lung LN” value in series [4] (systemic, 72 hour animal 19P0997, lung lymph node samples) is recorded as 4240 ng/g. In addition, the “Lung PTX concentration, RT Mid Lung” value in series [5] (local lavage of right lung, 20 min, animal 19P1241, middle lobe believed blocked) is 760 ng/g tissue and 557 ng/g tissue. In addition, the “lower drug concentration with local vs systemic administration for same lung tissue uptake” value in [5] (local vs systemic) came to 37 fold. The concentration at 20 min in series [5] (lung tissue, other: local lung lavage (right lung, via catheter), 32000 ng/mL (lavage solution), PTX in lung tissue achieved, local administration (GMX002)) is > 30000 ng/g; in series [5] (lung tissue, other: local lung lavage (right lung, via catheter), 32000 ng/mL (lavage solution), PTX per g of lung tissue, local, acute animal), ~32000 ng/g; in series [5] (lung tissue, other: local lung lavage (right lung, via catheter), 32000 ng/mL (lavage solution), highest PTX level in lung tissue, local administration), 38400 ng/g; in series [5] (lung, caudal lobe of the treated right lung, 32000 ng/mL, Lung PTX concentration, RT Caud Lung, local lavage of right lung, 20 min, animal 19P1241) it was 34600 ng/g; in series [5] (lung, middle lobe of the treated right lung, 32000 ng/mL, Lung PTX concentration, RT Mid Lung, local lavage of right lung, 20 min, animal 19P1241, middle lobe believed blocked) it was 749 ng/g. In addition, the concentration at 72 h in “in vivo [6]” (lung lymph node, 175 mg/m^2) is 4340 ng/g; in the series “in vivo [6]” (setting [18]) it was 3560 ng/g; in the series “in vivo [6]” (lung, right caudal lobe, 4.28 mg/kg/hr) it was 2720 ng/g; in series [8] (intravenous, 175 mg/m^2, Blood PTX concentration, systemic infusion, animal 19P0997, 72 hr) it was 713 ng/mL. Besides, the early mortality entry (GMX002) is “no early mortality” and the early mortality entry in [9] (GMX001) is given as “no early mortality”. The Clinical observations result (pig, in vivo) is recorded as “GMX002: Unremarkable”. Besides, where the note is “pig, in vivo”, the Physical examination result is recorded as “GMX002: Unremarkable”. Besides, under “pig, in vivo”, the “adverse events / clinical observations” value was “did not have any adverse events”. In addition, the “distress or complications during administration” value (pig, in vivo) is recorded as “did not show signs of distress or complications”. Also, for the setting “pig, in vivo”, the gross necropsy findings result is “no other abnormal findings noted at necropsy that could be attributed to the treatment”. The terminal clinical pathology result (pig, in vivo) is given as “clinical markers comparable to baseline”; the terminal clinical pathology result in series [9] (pig, in vivo) is “decrease in WBC, neutrophils, lymphocytes and platelet counts”. This molecule also gave a concentration at 4 h in series [8] (intravenous, 175 mg/m^2, Blood PTX concentration, systemic infusion, animal 19P0997, 4 hr) of 43100 ng/mL. Besides, the concentration at 6 h in series [8] (intravenous, 175 mg/m^2, Blood PTX concentration, systemic infusion, animal 19P0997, 6 hr) came to 28500 ng/mL. Also, in series [8] (intravenous, 175 mg/m^2, Blood PTX concentration, systemic infusion, animal 19P0997, 8 hr), the concentration at 8 h is 27100 ng/mL. In addition, the concentration at 12 h in series [8] (intravenous, 175 mg/m^2, Blood PTX concentration, systemic infusion, animal 19P0997, 12 hr) turned out to be 20500 ng/mL. Further, the concentration at 24 h in series [8] (intravenous, 175 mg/m^2, Blood PTX concentration, systemic infusion, animal 19P0997, 24 hr) was determined as 9110 ng/mL. Moreover, in series [9] (pig, in vivo), the distress with infusion entry is recorded as “showed distress”.

On to `N.N.[Cl][Pt][Cl]` [cisplatin], for which the Cmax in series [10] (systemic administration, read-out: Typical plasma Cmax) was 30 µM. In series [10] (systemic delivery), the “typical lung tissue Cmax” value is 170 µM.

`C[C@H]1COc2c(N3CCN(C)CC3)c(F)cc3c(=O)c(C(=O)O)cn1c23` [levofloxacin]: the “lung damage at pathology” value in series [11] (following local delivery) is given as “No lung damage was observed”. In addition, the side effects result in series [11] (local delivery) is “no significant side effects”. Also, the Sputum levels in series [12] was 32 µg/mL. The “Typical plasma Cmax” value in series [13] was 5600 ng/mL. Besides, in “in vivo [14]”, the Cmax was determined as 291 ng/mL.

Source of the values: patent US20230073301A1, “TISSUE DOSING FOR INTRALUMINAL LOCAL DRUG DELIVERY” (ISOLA THERAPEUTICS, INC., priority 2020, published 2023).
